Results from patent US10927085B2, “1,2-naphthoquinone based derivative and method of preparing the same” (HUEN Co., Ltd., priority 2013, dated 2021).
Where two headings read alike, the source gives them in different places.

Experiments:
NQO1 protein = NQO1 protein (Homo sapiens, UniProt P15559); test: NQO1 activity measurement (cytochrome C reduction); type: biochemical
Protocol: An enzyme reaction solution included 25 mM Tris/HCl (pH 7.4), 0.14% bovine serum albumin, 200 μM NADH, 77 μM cytochrome C, and 5 ng of NQO1 protein. Enzymatic reaction was initiated by adding NADH and performed at 37° C. In this regard, a reaction rate was measured by observing absorbance, which was increased due to reduction of cytochrome C, at 550 nm for 10 minutes and NQO1 activity was represented as an amount of reduced cytochrome C [nmol cytochrome C reduced/min/μg protein].
Extinction coefficient for cytochrome C:21.1 mmol/L/cm=21.1 μmol/ml/cm

cells = test: Measurement of lactate change amount within cells; type: cell-based
Protocol: Cells were treated with 400 μl of 6% PCA, and then collected and extracted. Centrifugation (13,000 rpm, 10 min) was performed. A precipitate was dried using a Speed-Vac and then a weight of dried precipitate was measured. A supernatant was neutralized using 400 μl of 1 M KOH and a final volume thereof was adjusted to 1 ml using 0.33 M KH2PO4/K2HPO4, pH 7.5. Centrifugation (13,000 rpm, 10 min) was performed and the amount of lactate in a supernatant was measured (Megazyme, K-LATE).

C57BL/6J Lep ob/ob mice = test: Weight loss effects in obese mice (ob/ob); type: in vivo; details: for weight increase ratio vs controls (FIG. 1): Exp. Ex. 3-1: 6.5 week-old ob/ob mice, 100 mg/kg orally once every day for two weeks
Protocol: 6.5 week-old C57BL/6J Lep ob/ob mice having genetic obesity characteristics available from ORIENTBIO were prepared. Two mice were raised in each polycarbonate breeding cage (200 W×260 L×130H (mm), Three-shine) in which temperature was 22 to 24° C., relative humidity was 30 to 50%, illuminance was 150 to 300 lux, night and day were 12 hours, and exhaust was performed at 10 to 15 air changes per hour. As a feed, low fat diet (11.9 kcal % fat, 5053, Labdiet) manufactured by ORIENTBIO was used. The feed was contained in a feeder and free intake was allowed. As drinking water, water, which was contained in a 250 mL polycarbonate based bottle, purified through a filter and a sterilizer was used and free intake was allowed.
For administration, a disposable syringe fitted with a sonde for oral administration was used and 10 ml/kg of the compound was orally administered into the stomach. As controls, three C57BL/6J Lep ob/ob mice were administered 0.1% SLS in an amount of 100 mg/kg in the same manner as described above. After administration, a time-dependent weight increase ratio was measured and results are illustrated in FIG. 1 below.
Weights of the experimental animals were measured immediately before administration of a test material and six times a week from an administration initiation day to a test termination day. Increased total weights were calculated by subtracting weights measured on an experiment initiation day from weights measured one day before an experiment termination day. Food intake amounts were calculated by measuring feed supply amounts and remaining amounts twice a week from an initiation day of test material administration to a test termination day for each individual.
Weight increase ratios, weight change, and intake amounts depending on administration time were measured and results are illustrated in FIG. 2 below.
Weight increase ratios, weight change, and intake amounts depending on administration time were measured and results are illustrated in FIG. 3 below.
Weight increase ratios, weight change, and intake amounts depending on administration time were measured and results are illustrated in FIG. 4 below.
Weight increase ratios, weight change, and intake amounts depending on administration time were measured and results are illustrated in FIG. 5 below.
Weight increase ratios, weight change, and intake amounts depending on administration time were measured and results are illustrated in FIG. 6 below.
Weight increase ratios, weight change, and intake amounts depending on administration time were measured and results are illustrated in FIG. 7 below.
Weight increase ratios, weight change, and intake amounts depending on administration time were measured and results are illustrated in FIG. 8 below.

[1] = 5 μM, 37° C., absorbance at 550 nm for 10 minutes, 200 μM NADH, 77 μM cytochrome C, 5 ng NQO1 protein
[2] = Exp. Ex. 3-2: 10.5 week-old ob/ob mice, 150 mg/kg orally, six days
[3] = Exp. Ex. 3-3: 6 week-old ob/ob mice, 100 mg/kg orally, otherwise as 3-1
[4] = Exp. Ex. 3-4: 11 week-old ob/ob mice, 100 mg/kg orally, six days
[5] = Exp. Ex. 3-6: 12 week-old ob/ob mice, 150 mg/kg orally, seven days
[6] = Exp. Ex. 3-8: 9.5 week-old ob/ob mice, 150 mg/kg orally, otherwise as 3-1
[7] = Exp. Ex. 3-7: 6.5 week-old ob/ob mice, 150 mg/kg orally, seven days

Sequence of NQO1 protein (P15559 whole entry, species assumed): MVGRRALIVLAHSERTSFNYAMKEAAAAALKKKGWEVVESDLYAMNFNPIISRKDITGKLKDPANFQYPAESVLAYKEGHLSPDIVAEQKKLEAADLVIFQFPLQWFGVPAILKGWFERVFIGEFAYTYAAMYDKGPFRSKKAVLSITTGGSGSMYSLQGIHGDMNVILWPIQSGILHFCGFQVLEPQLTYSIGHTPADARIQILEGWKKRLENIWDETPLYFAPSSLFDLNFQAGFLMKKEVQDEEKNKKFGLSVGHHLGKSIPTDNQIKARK

CC(C)c1nc2c(o1)-c1ccccc1C(=O)C2=O [Example 1, 2-isopropylnaphtho[2,1-d]oxazole-4,5-dione]
NQO1 activity (5 μM, [nmol cytochrome C reduced/min/μg protein]) (NQO1 protein; [1]): 255.2 nmol cytochrome C reduced/min/μg protein
Lactate change amount within cells (nmol/mg cell) (cells): 5.2 nmol/mg cell
weight increase ratio vs controls (FIG. 1) (C57BL/6J Lep ob/ob mice): significantly decreased

CC(C)(C)c1nc2c(o1)-c1ccccc1C(=O)C2=O [Example 2, 2-tert-butylnaphtho[2,1-d]oxazole-4,5-dione]
NQO1 activity (5 μM, [nmol cytochrome C reduced/min/μg protein]) (NQO1 protein; [1]): 243.2 nmol cytochrome C reduced/min/μg protein
Lactate change amount within cells (nmol/mg cell) (cells): 6.8 nmol/mg cell
weight increase ratio vs controls (FIG. 1) (C57BL/6J Lep ob/ob mice): significantly decreased

O=C1C(=O)c2nc(CN3CCOCC3)oc2-c2ccccc21 [Example 4, 2-(morpholinomethyl)naphtho[2,1-d]oxazole-4,5-dione]
NQO1 activity (5 μM, [nmol cytochrome C reduced/min/μg protein]) (NQO1 protein; [1]): 207.3 nmol cytochrome C reduced/min/μg protein
Lactate change amount within cells (nmol/mg cell) (cells): 9.3 nmol/mg cell
intake amount vs controls (FIG. 2) (C57BL/6J Lep ob/ob mice; [2]): significantly decreased
weight change vs controls (FIG. 2) (C57BL/6J Lep ob/ob mice; [2]): significantly decreased
weight increase ratio vs controls (FIG. 2) (C57BL/6J Lep ob/ob mice; [2]): significantly decreased

CN(C)Cc1nc2c(o1)-c1ccccc1C(=O)C2=O [Example 5, 2-((dimethylamino)methyl)naphtho[2,1-d]oxazole-4,5-dione]
Lactate change amount within cells (nmol/mg cell) (cells): 5.9 nmol/mg cell
intake amount vs controls (FIG. 2) (C57BL/6J Lep ob/ob mice; mouse, in vivo, po, 150 mg/kg): significantly decreased
weight change vs controls (FIG. 2) (C57BL/6J Lep ob/ob mice; mouse, in vivo, po, 150 mg/kg): significantly decreased

COc1cccc2c1-c1oc(C(C)C)nc1C(=O)C2=O [Example 8, 2-isopropyl-9-methoxynaphtho[2,1-d]oxazole-4,5-dione]
NQO1 activity (5 μM, [nmol cytochrome C reduced/min/μg protein]) (NQO1 protein; [1]): 205.1 nmol cytochrome C reduced/min/μg protein
Lactate change amount within cells (nmol/mg cell) (cells): 6.2 nmol/mg cell
intake amount vs controls (FIG. 3) (C57BL/6J Lep ob/ob mice; [3]): significantly decreased
weight increase ratio vs controls (FIG. 3) (C57BL/6J Lep ob/ob mice; [3]): significantly decreased

COc1ccc(Br)c2c1-c1oc(C(C)C)nc1C(=O)C2=O [Example 9, 6-bromo-2-isopropyl-9-methoxynaphtho[2,1-d]oxazole-4,5-dione]
NQO1 activity (5 μM, [nmol cytochrome C reduced/min/μg protein]) (NQO1 protein; [1]): 73.6 nmol cytochrome C reduced/min/μg protein
Lactate change amount within cells (nmol/mg cell) (cells): 7.3 nmol/mg cell
weight change vs controls (FIG. 4) (C57BL/6J Lep ob/ob mice; [4]): significantly decreased
weight increase ratio vs controls (FIG. 4) (C57BL/6J Lep ob/ob mice; [4]): significantly decreased

O=C1C(=O)c2oc(-c3ccccc3)nc2-c2ccccc21 [Example 27]
Lactate change amount within cells (nmol/mg cell) (cells): 5.8 nmol/mg cell
weight change vs controls (FIG. 4) (C57BL/6J Lep ob/ob mice; mouse, in vivo, po, 100 mg/kg): significantly decreased

CC(C)(C)c1nc2c(o1)C(=O)C(=O)c1ccccc1-2 [Example 28, 2-tert-butylnaphtho[1,2-d]oxazole-4,5-dione]
Lactate change amount within cells (nmol/mg cell) (cells): 7.4 nmol/mg cell
intake amount vs controls (FIG. 3) (C57BL/6J Lep ob/ob mice; mouse, in vivo, po, 100 mg/kg): significantly decreased

CC(C)(C)c1nc2c(o1)C(=O)C(=O)c1cc(N)ccc1-2 [Example 30, 7-amino-2-tert-butylnaphtho[1,2-d]oxazole-4,5-dione]
Lactate change amount within cells (nmol/mg cell) (cells): 7.3 nmol/mg cell
intake amount vs controls (FIG. 5) (C57BL/6J Lep ob/ob mice; mouse, in vivo, po, 150 mg/kg): significantly decreased
weight change vs controls (FIG. 5) (C57BL/6J Lep ob/ob mice; mouse, in vivo, po, 150 mg/kg): significantly decreased

O=C1C(=O)c2oc(-c3ccc(F)cc3)nc2-c2cccnc21 [Example 36]
NQO1 activity (5 μM, [nmol cytochrome C reduced/min/μg protein]) (NQO1 protein; [1]): 936.1 nmol cytochrome C reduced/min/μg protein
Lactate change amount within cells (nmol/mg cell) (cells): 7.3 nmol/mg cell
intake amount vs controls (FIG. 6) (C57BL/6J Lep ob/ob mice; [5]): significantly decreased
weight change vs controls (FIG. 6) (C57BL/6J Lep ob/ob mice; [5]): significantly decreased
weight increase ratio vs controls (FIG. 6) (C57BL/6J Lep ob/ob mice; [5]): significantly decreased

CCn1c2c(oc1=O)-c1ccccc1C(=O)C2=O [Example 41]
NQO1 activity (5 μM, [nmol cytochrome C reduced/min/μg protein]) (NQO1 protein): 237.1 nmol cytochrome C reduced/min/μg protein
Lactate change amount within cells (nmol/mg cell) (cells): 5.2 nmol/mg cell
intake amount vs controls (FIG. 7) (C57BL/6J Lep ob/ob mice; mouse, in vivo, po, 150 mg/kg): significantly decreased in some sections
weight change vs controls (FIG. 7) (C57BL/6J Lep ob/ob mice; mouse, in vivo, po, 150 mg/kg): significantly decreased in some sections
weight increase ratio vs controls (FIG. 7) (C57BL/6J Lep ob/ob mice; mouse, in vivo, po, 150 mg/kg): significantly decreased in some sections

O=C1C(=O)c2c(oc(=O)n2Cc2ccc(F)cc2)-c2ccccc21 [Example 42]
NQO1 activity (5 μM, [nmol cytochrome C reduced/min/μg protein]) (NQO1 protein; [1]): 208.0 nmol cytochrome C reduced/min/μg protein
Lactate change amount within cells (nmol/mg cell) (cells): 7.1 nmol/mg cell
intake amount vs controls (FIG. 8) (C57BL/6J Lep ob/ob mice; [6]): significantly decreased in some sections
weight change vs controls (FIG. 8) (C57BL/6J Lep ob/ob mice; [6]): significantly decreased in some sections
weight increase ratio vs controls (FIG. 8) (C57BL/6J Lep ob/ob mice; [6]): significantly decreased in some sections

CCc1nc2c(o1)C(=O)C(=O)c1ccccc1-2 [Example 51]
NQO1 activity (5 μM, [nmol cytochrome C reduced/min/μg protein]) (NQO1 protein; [1]): 240.9 nmol cytochrome C reduced/min/μg protein
Lactate change amount within cells (nmol/mg cell) (cells): 5.7 nmol/mg cell
intake amount vs controls (FIG. 7) (C57BL/6J Lep ob/ob mice; [7]): significantly decreased in some sections
weight change vs controls (FIG. 7) (C57BL/6J Lep ob/ob mice; [7]): significantly decreased in some sections
weight increase ratio vs controls (FIG. 7) (C57BL/6J Lep ob/ob mice; [7]): significantly decreased in some sections
